Source: patent US8742124B2, “Amide derivatives bearing a cyclopropylaminoacarbonyl substituent useful as cytokine inhibitors” (AstraZeneca AB, priority 2003, dated 2014)

How the values were obtained:
[1] = target: T1, Human recombinant p38α (Homo sapiens, UniProt Q16539); experiment: In vitro enzyme assay, p38α kinase inhibition; format: biochemical; details: activated p38α, Myelin Basic Protein substrate, 33P ATP
T1 construct: c-myc (N); 6His (N); made in house; host or cells: E. coli (PET vectors)
T1 sequence (Q16539 whole entry): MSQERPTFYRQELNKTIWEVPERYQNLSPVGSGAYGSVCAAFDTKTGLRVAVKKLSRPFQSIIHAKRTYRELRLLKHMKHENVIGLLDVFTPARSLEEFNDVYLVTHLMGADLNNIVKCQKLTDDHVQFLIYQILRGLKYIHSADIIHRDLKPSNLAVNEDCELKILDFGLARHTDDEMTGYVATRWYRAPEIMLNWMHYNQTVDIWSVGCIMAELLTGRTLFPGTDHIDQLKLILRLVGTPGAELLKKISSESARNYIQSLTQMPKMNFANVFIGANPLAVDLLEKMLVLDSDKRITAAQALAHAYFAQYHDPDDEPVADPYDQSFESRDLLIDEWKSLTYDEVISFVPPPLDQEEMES
Method: The ability test compounds to inhibit the enzyme p38 kinase was assessed. Activity of the test compound against each of the p38α and […] isoforms of the enzyme was determined.
Human recombinant MKK6 (GenBank Accession Number G1209672) was isolated from Image clone 45578 (Genomics, 1996, 33, 151) and utilised to produce protein in the form of a GST fusion protein in a pGEX vector using analogous procedures to those disclosed by J. Han et al., Journal of Biological Chemistry, 1996, 271, 2886-2891. p38α (GenBank Accession Number G529039) and p38β (GenBank Accession Number G1469305) were isolated by PCR amplification of human lymphoblastoid cDNA (GenBank Accession Number GM1416) and human foetal brain cDNA [synthesised from mRNA (Clontech, catalogue no. 6525-1) using a Gibco superscript cDNA synthesis kit] respectively using oligonucleotides designed for the 5′ and 3′ ends of the human p38α and p38β genes using analogous procedures to those described by J. Han et al., Biochimica et Biophysica Acta, 1995, 1265, 224-227 and Y. Jiang et al., Journal of Biological Chemistry, 1996, 271, 17920-17926.
Both p38 protein isoforms were expressed in E. coli in PET vectors. Human recombinant p38α and p38β isoforms were produced as 5′ c-myc, 6His tagged proteins. Both MKK6 and the p38 proteins were purified using standard protocols: the GST MKK6 was purified using a glutathione sepharose column and the p38 proteins were purified using nickel chelate columns.
The p38 enzymes were activated prior to use by incubation with MKK6 for 3 hours at 30° C. The unactivated E. coli-expressed MKK6 retained sufficient activity to fully activate both isoforms of p38. For p38α, the activation incubate comprised p38α (50 μl of 10 mg/ml), MKK6 (5 μl of 12 mg/ml), ‘Kinase buffer’ [550 μl; pH 7.4 buffer comprising Tris HCl (50 mM), EGTA (0.1 mM), sodium orthovanadate (0.1 mM) and (1-mercaptoethanol (0.1%)], Mg [75 μl of 100 mM Mg(OCOCH3)2] and ATP (75 μl of 1 mM). The activation incubate for p38β was similar to the above except containing […] enzyme (82 μl at 3.05 mg/ml) and 518 μl “Kinase buffer”. p38α and p38β activation incubates were either used fresh or aliquoted and stored at −80° C.
The test compound was solubilised in DMSO (10 mM) and 1:3 serial dilutions in DMSO carried out in polypropylene plates (Costar 3365). Compound dilutions were then diluted 1:10 in “Kinase buffer” and 10 μl transferred to a microtiter assay plate (Costar 3596). Control wells contained 10 μl (1:10 dilution in kinase buffer) DMSO. ‘Kinase Assay Mix’ [[…]; comprising Myelin Basic Protein (Sigma M-1891; 0.5 ml of a 6.66 mg/ml solution in “Kinase buffer”), activated p38α enzyme (3.8 μl) and ‘Kinase Buffer’ (2.55 ml)] was then added. Control wells on each plate either contained the above “Kinase Assay Mix” (n=6 replicates) or contained “Kinase Assay Mix” in which the activated p38 enzyme was replaced by Kinase buffer (n=6 replicates). ‘Labelled ATP’ was then added to all wells […]; comprising 50 μM ATP, 5 μCi ^33P ATP (Amersham International cat. no. AH9968) and 50 mM Mg(OCOCH3)2]. For p38β, 23 μl activated p38β enzyme and “Kinase buffer” (2.53 ml) were included in the “Kinase Assay Mix”. The final concentration of test compound was 2.4 μM-0.001 μM (n=2 replicates). Microtiter plates were incubated at ambient temperature (with gentle agitation) for 60 minutes and the reaction stopped by addition of 20% trichloroacetic acid (TCA) (50 μl). The precipitate protein was captured onto filter plates (PerkinElmer 6005174) using a Packard Filtermate harvester (2% TCA wash) which was then dried overnight and 25 μl MICROSCINT O (Packard O6013611) added to each well. Plates were counted on a Top Count scintillation counter. Dose response curves were generated using an in house automated data analysis package and an Origin curve fitting package.

[2] = test system: TNFα production in human whole blood; experiment: Human whole blood assay, inhibition of LPS-stimulated TNFα production; format: cell-based; details: LPS 10 μg/ml, 6 hours, TNFα by ELISA
Method: [formula] (ii) Human Whole Blood
The ability of a test compound to inhibit TNFα production was also assessed in a human whole blood assay. Human whole blood secretes TNFα when stimulated with LPS.
Heparinised (10 units/ml) human blood was obtained from volunteers. 160 μl whole blood was added to 96 well round-bottom plates (Corning 3799). Compounds were solubilised in DMSO at a concentration of 10 mM, diluted 1:100 in “culture medium” [RPMI 1640 medium (Sigma) containing 50 units/ml penicillin, 50 μg/ml streptomycin and 2 mM glutamine] and subsequently serial dilutions were made in culture medium containing 1% DMSO. 20 μl of each test concentration was added to appropriate wells (triplicate cultures)(final concentration dose range of 10 μM-0.0001 μM). 20 μl of RPMI culture medium containing 1% DMSO was added to control wells.
Plates were incubated for 30 minutes at 37° C. (humidified incubator), prior to addition of 20 μl LPS (final concentration 10 μg/ml). Culture medium was added to control wells. Six “LPS alone” and six “medium alone” controls were included on each plate. A known TNFα synthesis/secretion inhibitor was included in each test. Plates were incubated for 6 hours at 37° C. (humidified incubator). Plates were centrifuged (2000 rpm for 10 minutes) and 80 μl plasma removed and stored at −80° C. (Corning 3799 plates). TNFα levels were measured by ELISA using paired antibodies from R&D Systems (catalogue nos. MAB610 and BAF210).

| Structure (SMILES) | IC50 [1] [nM] | IC50 [2] [nM] |
| --- | --- | --- |
| Cc1ccc(C(=O)NC2CC2)cc1NC(=O)c1ccc(OCc2ncccc2C)cc1 [Example 8, N-cyclopropyl-4-methyl-3-({4-[(3-methylpyridin-2-yl)methoxy]benzoyl}amino)benzamide] | 59 | 1800 |
| COc1ccc(C(=O)Nc2cc(C(=O)NC3CCC3)ccc2C)cc1OC [Comparator Compound X, N-cyclobutyl-3-(3,4-dimethoxybenzamido)-4-methylbenzamide, reference compound] | 4400 | > 10000 |
| Cc1ccc(C(=O)NC2CC2)cc1NC(=O)c1cnc(OCc2nccs2)nc1 [23[a], N-{5-[(cyclopropylamino)carbonyl]-2-methylphenyl}-2-(1,3-thiazol-2-ylmethoxy)pyrimidine-5-carboxamide] | 170 | 1700 |
| Cc1ccc(C(=O)NC2CC2)cc1NC(=O)c1ccc(OCc2cn3ccccc3n2)cc1 [5[e], N-cyclopropyl-3-{[4-(imidazo[1,2-a]pyridin-2-ylmethoxy)benzoyl]amino}-4-methylbenzamide] | 10 | 520 |

Now from value to compound:

| IC50 [1] [nM] | IC50 [2] [nM] | Structure (SMILES) |
| --- | --- | --- |
| 7 | 70 | Cc1ccc(C(=O)NC2CC2)cc1NC(=O)c1ccc(OCc2cscn2)c(F)c1 [5[ac], N-{5-[(cyclopropylamino)carbonyl]-2-methylphenyl}-3-fluoro-4-(1,3-thiazol-4-ylmethoxy)benzamide] |
| 6 | 140 | Cc1ccc(C(=O)NC2CC2)cc1NC(=O)c1ccc(OCc2ccccn2)c(F)c1 [5[y], N-{5-[(cyclopropylamino)carbonyl]-2-methylphenyl}-3-fluoro-4-(pyridin-2-ylmethoxy)benzamide] |
| 7 | 300 | Cc1nc(COc2ccc(C(=O)Nc3cc(C(=O)NC4CC4)ccc3C)cc2F)cs1 [5[z], N-{5-[(cyclopropylamino)carbonyl]-2-methylphenyl}-3-fluoro-4-[(2-methyl-1,3-thiazol-4-yl)methoxy]benzamide] |
